Among the data in patent US20070275961A1, “Triazolo ' 1, 5-A ! Pyrimidines and Their Use in Medicine” (VERNALIS (CAMBRIDGE) LIMITED., priority 2003, published 2007) are IC50 values, retold here.

What all share (format): biochemical
The target in assay [1] is CDK2 enzyme, complexed with cyclin A (Homo sapiens, UniProt P24941). Kind of assay: CDK2 cyclin dependent kinase assay, phosphorylation of synthetic peptide […] (33P-ATP filtration). To be noted: 0.1 mM ATP. Here is the method: (§1) The assay mixture containing the inhibitor and CDK2 enzyme, complexed with cyclin A (0.4 U/ml) was mixed together in a microtiter plate in a final volume of 50 μl and incubated for 40 min at 30° C. The assay mixture contained 0.1 mM unlabeled ATP, 0.01 μCi/μl ^33P-γ-ATP, 0.03 mM peptide, 0.1 mg/ml BSA, 7.5 mM magnesium acetate, 50 mM HEPES-NaOH, pH 7.5. The reaction was stopped by adding 50 μl of 50 mM phosphoric acid. 90 μl of the mixture were transferred to a pre-wetted 96-well Multiscreen MAPHNOB filtration plate (Millipore) and filtered on a vacuum manifold. The filter plate was washed with three successive additions of 200 μl 50 mM phosphoric acid and then with 100 μl methanol. The filtration plate was dried for 10 min at 65° C., scintillant added and phosphorylated peptide quantified in a scintillation counter (Trilux, PerkinElmer).
HEPES is N-[2-hydroxyethyl]piperazine-N′-[2-ethanesulfonic acid]. BSA is bovine serum albumin.

For another assay, the target named is T1, Chk1 (Homo sapiens, UniProt O14757).
T1 sequence (O14757 1-476): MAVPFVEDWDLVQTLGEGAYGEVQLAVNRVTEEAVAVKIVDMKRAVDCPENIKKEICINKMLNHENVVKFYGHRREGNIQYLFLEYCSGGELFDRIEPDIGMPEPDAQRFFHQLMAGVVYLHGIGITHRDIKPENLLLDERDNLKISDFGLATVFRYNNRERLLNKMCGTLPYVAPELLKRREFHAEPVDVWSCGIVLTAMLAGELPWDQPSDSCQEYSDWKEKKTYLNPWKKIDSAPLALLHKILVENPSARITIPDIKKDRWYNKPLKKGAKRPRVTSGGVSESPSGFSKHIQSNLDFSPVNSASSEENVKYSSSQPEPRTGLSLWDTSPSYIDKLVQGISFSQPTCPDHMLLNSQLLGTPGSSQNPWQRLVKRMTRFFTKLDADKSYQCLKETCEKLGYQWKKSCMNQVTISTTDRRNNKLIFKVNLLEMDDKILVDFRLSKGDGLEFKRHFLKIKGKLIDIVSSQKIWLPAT
Kind of assay: Chk1 kinase assay, phosphorylation of Chktide (33P-ATP filtration). The settings on record: 0.01 mM ATP, read-out: Chk1 IC50. Here is the method:
Assays for the Chk1 kinase activity were carried out by monitoring the phosphorylation of a synthetic peptide Chktide with the amino acid sequence, […]. The assay mixture containing the inhibitor and Chk1 enzyme was mixed together in a microtiter plate in a final volume of 50 μl and incubated for 40 minutes at 30° C.
The assay mixture contained 0.01 mM unlabeled ATP, 0.5 μCi ^33P-γ-ATP, 30 μM Chktide, 0.1 mg/ml BSA, 50 mM Hepes-NaOH pH 7.5 and 11 nM GST-Chk1 enzyme. The reaction was stopped by adding 50 μl of 50 mM phosphoric acid. 90 μl of the mixture was transferred to a pre-wetted 96-well Multiscreen MAPHNOB filtration plate (Millipore) and filtered on a vacuum manifold. The filter plate was washed with three successive additions of 200 μl 50 mM phosphoric acid and then with 100 μl methanol. The filtration plate was dried for 10 min at 65° C., scintillant added and phosphorylated peptide quantified in a scintillation counter (Trilux, PerkinElmer).

Another assay addresses T2, PDK1 enzyme (Homo sapiens, UniProt O15530).
T2 sequence (O15530 1-556): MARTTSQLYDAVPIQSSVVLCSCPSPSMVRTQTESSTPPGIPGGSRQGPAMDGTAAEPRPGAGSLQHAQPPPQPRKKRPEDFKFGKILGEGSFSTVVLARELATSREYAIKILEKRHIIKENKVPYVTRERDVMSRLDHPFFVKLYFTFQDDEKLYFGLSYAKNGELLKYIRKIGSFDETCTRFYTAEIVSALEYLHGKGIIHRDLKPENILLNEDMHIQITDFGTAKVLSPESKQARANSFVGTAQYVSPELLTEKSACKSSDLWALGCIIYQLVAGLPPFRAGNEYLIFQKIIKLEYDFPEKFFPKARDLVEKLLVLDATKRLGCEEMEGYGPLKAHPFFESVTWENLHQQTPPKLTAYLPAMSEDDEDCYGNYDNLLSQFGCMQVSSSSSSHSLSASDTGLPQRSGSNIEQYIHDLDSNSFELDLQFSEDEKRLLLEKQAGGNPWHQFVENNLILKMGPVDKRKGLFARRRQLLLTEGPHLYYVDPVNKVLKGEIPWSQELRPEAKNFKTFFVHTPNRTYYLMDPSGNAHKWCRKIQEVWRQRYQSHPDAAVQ
Kind of assay: PDK1 3'-phosphoinositide-dependent kinase assay, phosphorylation of synthetic peptide (33P-ATP filtration). The settings on record: 0.01 mM ATP, read-out: PDK1 IC50. The protocol:
as §1, with “and PDK1 enzyme” for “and CDK2 enzyme, complexed with cyclin A (0.4 U/ml)”, “for 60” for “for 40”, “contained 0.01” for “contained 0.1”, “^33P-γ-ATP, 0.075” for “^33P-γ-ATP, 0.03”, “acetate, 0.05 M Tris.HCl,” for “acetate, 50 mM HEPES-NaOH,”, “pH 7.5, 0.5% 2-mercaptoethanol.” for “pH 7.5.”

Read-outs that look alike come from different tables or passages of the source.

With `NS(=O)(=O)c1ccc(Nc2ccnc3ncnn23)cc1` [Example 30], the IC50 in assay [1] (Table 1) was 33 µM; at Chk1 (Table 1), 72 µM; at PDK1 enzyme (Table 1) it was more than 200 µM.

For `CN(C)Cc1ccccc1-c1cc(Nc2cc(Cl)ccc2O)n2ncnc2n1` [Example 26], the IC50 in assay [1] (Table 1) is more than 200 µM; at Chk1 (Table 1) it was 105 µM; at PDK1 enzyme (Table 1), more than 200 µM.

As for `CC(=O)Nc1cccc(Nc2cc(-c3cccc(F)c3)n3ncnc3n2)c1` [Example 131], the IC50 in assay [1] (Table 3) was more than 200 µM; on Chk1 (Table 3), 26.3 µM; on PDK1 enzyme (Table 3), 69.4 µM.

On to `CCN(CC)CCNC(=O)c1ccc(Nc2cc(Cc3cc(OC)ccc3OC)n3ncnc3n2)cc1` [Example 128], for which the IC50 in assay [1] (Table 3) is more than 200 µM; at Chk1 (Table 3), 65.8 µM; at PDK1 enzyme (Table 3) it was more than 200 µM.

For `NS(=O)(=O)c1ccc(Nc2cc(-c3cccc(C(=O)O)c3)nc3ncnn23)cc1` [Example 27], the IC50 is 14.3 µM in assay [1] (Table 1), more than 200 µM at Chk1 (Table 1) and more than 200 µM on PDK1 enzyme (Table 1).

With `NC(=O)c1ccc(Nc2cc(-c3ccc4ccccc4c3)n3ncnc3n2)cc1` [Example 136], the 50% inhibitory concentration (IC50) is more than 200 µM in assay [1] (Table 3), 13.7 µM at Chk1 (Table 3) and 92.9 µM at PDK1 enzyme (Table 3).

On to `CC[C@H](CO)Nc1cc(NCc2ccccc2)n2ncnc2n1` [Example 79], for which the IC50 is 5.05 µM in assay [1] (Table 2), more than 200 µM at Chk1 (Table 2) and more than 200 µM on PDK1 enzyme (Table 2).

Take `NCCOc1cccc(-c2cc(Nc3ccc(C(N)=O)cc3)nc3ncnn23)c1` [Example 151]: the concentration for half-maximal inhibition (IC50) worked out at 47.5 µM in assay [1] (Table 4), 3 µM on Chk1 (Table 4) and 0.25 µM at PDK1 enzyme (Table 4).

For `CCN(CC)c1cc(Nc2ccc(S(=O)(=O)N(C)C)cc2)n2ncnc2n1` [Example 71], the results for the half-maximal inhibitory concentration (IC50) (in assay [1] (Table 2); on Chk1 (Table 2); at PDK1 enzyme (Table 2)) were 0.59 µM, more than 200 µM and more than 200 µM, respectively.

Take `N#Cc1ccc(Nc2cc(Cl)nc3ncnn23)cc1` [Example 41]: the IC50 was 61.4 µM in assay [1] (Table 1), more than 200 µM on Chk1 (Table 1) and more than 200 µM on PDK1 enzyme (Table 1).

For the compound `CCN(CC)CCNC(=O)c1ccc(Nc2cc(-c3ccccc3)n3ncnc3n2)cc1` [Example 121], the values for the IC50 (in assay [1] (Table 3); on Chk1 (Table 3); on PDK1 enzyme (Table 3)) were more than 200 µM, 2.25 µM and 15.4 µM, respectively.

Turning to `O=S(=O)(c1ccc(Nc2cc(-c3cccc(F)c3)n3ncnc3n2)cc1)N1CCOCC1` [Example 130], the values for the IC50 (in assay [1] (Table 3); on Chk1 (Table 3); on PDK1 enzyme (Table 3)) were more than 200 µM, 26.9 µM and 34.2 µM, respectively.

Take `NS(=O)(=O)c1ccc(Nc2cc(N[C@H]3CC[C@H](O)CC3)nc3ncnn23)cc1` [Example 68]: the half-inhibitory concentration (IC50) is 7.4 µM in assay [1] (Table 2), more than 200 µM at Chk1 (Table 2) and more than 200 µM on PDK1 enzyme (Table 2).

As to `CS(=O)(=O)c1ccc(Nc2cc(-c3cccc(F)c3)n3ncnc3n2)cc1` [Example 119], the results for the IC50 (in assay [1] (Table 3); at Chk1 (Table 3); at PDK1 enzyme (Table 3)) were more than 200 µM, 2.58 µM and 115 µM, respectively.

`O[C@H]1CC[C@H](Nc2cc(Cl)nc3ncnn23)CC1` [Example 43]: the half-maximal inhibitory concentration (IC50) (in assay [1] (Table 1); at Chk1 (Table 1); on PDK1 enzyme (Table 1)) was more than 200 µM throughout.

As to `COc1ccc(C)cc1-c1cc(Nc2ccc(C(N)=O)cc2)nc2ncnn12` [Example 135], the figures for the IC50 (in assay [1] (Table 3); at Chk1 (Table 3); on PDK1 enzyme (Table 3)) were more than 200 µM, 107 µM and 10.7 µM, respectively.

Regarding `NC(=O)c1ccc(Nc2cc(Cc3ccccc3)n3ncnc3n2)cc1` [Example 123], the results for the IC50 (in assay [1] (Table 3); at Chk1 (Table 3); at PDK1 enzyme (Table 3)) were more than 200 µM, 31.4 µM and more than 200 µM, respectively.

For `CCOC(=O)c1ccc(Nc2cc(-c3cccc(O)c3)nc3ncnn23)cc1` [Example 50], the IC50 was 31.9 µM in assay [1] (Table 1), more than 200 µM at Chk1 (Table 1) and more than 200 µM on PDK1 enzyme (Table 1).

Turning to `Cc1cc(Nc2ccc(C(N)=O)cc2)nc2ncnn12` [Example 114], the results for the half-inhibitory concentration (IC50) (in assay [1] (Table 3); on Chk1 (Table 3); on PDK1 enzyme (Table 3)) were more than 200 µM, 6.42 µM and more than 200 µM, respectively.

Turning to `CCOC(=O)Cc1ccc(Nc2cc(-c3cccc(F)c3)n3ncnc3n2)cc1` [Example 133], the results for the half-maximal inhibitory concentration (IC50) (in assay [1] (Table 3); at Chk1 (Table 3); on PDK1 enzyme (Table 3)) were more than 200 µM, 8.84 µM and 2.25 µM, respectively.

For `CN(C)c1ccc(Nc2cc(Nc3ccc(S(C)(=O)=O)cc3)n3ncnc3n2)cc1` [Example 91], the IC50 was 4.83 µM in assay [1] (Table 2), 14.2 µM at Chk1 (Table 2) and more than 200 µM on PDK1 enzyme (Table 2).

For the compound `NC(=O)c1ccc(Nc2cc(-c3ccc4c(c3)OCO4)n3ncnc3n2)cc1` [Example 137], the IC50 in assay [1] (Table 3) is more than 200 µM; at Chk1 (Table 3) it was 14.2 µM; at PDK1 enzyme (Table 3), 29.1 µM.

`CCOc1cc(Nc2ccc(S(N)(=O)=O)cc2)n2ncnc2n1` [Example 62]: the half-maximal inhibitory concentration (IC50) in assay [1] (Table 2) is 13 µM; on Chk1 (Table 2), more than 200 µM; at PDK1 enzyme (Table 2) it was more than 200 µM.

Regarding `CC(C)(C)CNc1cc(Nc2ccc(S(C)(=O)=O)cc2)n2ncnc2n1` [Example 94], the IC50 in assay [1] (Table 2) was 1.53 µM; at Chk1 (Table 2), more than 200 µM; at PDK1 enzyme (Table 2), more than 200 µM.

As for `CCN(CC)CCNC(=O)c1ccc(Nc2cc(-c3cccc(C#N)c3)nc3ncnn23)cc1` [Example 28], the 50% inhibitory concentration (IC50) in assay [1] (Table 1) was 18.6 µM; at Chk1 (Table 1) it was more than 200 µM; at PDK1 enzyme (Table 1), more than 200 µM.

Consider `CC[C@H](CO)Nc1cc(Nc2ccc(S(C)(=O)=O)cc2)n2ncnc2n1` [Example 69], for which the IC50 in assay [1] (Table 2) was 1.82 µM; at Chk1 (Table 2), more than 200 µM; on PDK1 enzyme (Table 2), more than 200 µM.

On to `NC(=O)c1sccc1Nc1cc(Cl)nc2ncnn12` [Example 47], for which the half-maximal inhibitory concentration (IC50) (in assay [1] (Table 1); on Chk1 (Table 1); on PDK1 enzyme (Table 1)) was more than 200 µM each time.

For the compound `COc1ccc(OC)c(Cc2cc(Nc3ccc(C(N)=O)cc3)nc3ncnn23)c1` [Example 127], the results for the concentration for half-maximal inhibition (IC50) (in assay [1] (Table 3); on Chk1 (Table 3); at PDK1 enzyme (Table 3)) were more than 200 µM, 106 µM and more than 200 µM, respectively.

Take `Cc1cccc(-c2cc(Nc3ccc(N(C)C)cc3)nc3ncnn23)c1` [Example 108]: the 50% inhibitory concentration (IC50) in assay [1] (Table 3) is more than 200 µM; on Chk1 (Table 3), 36.8 µM; at PDK1 enzyme (Table 3) it was 66.8 µM.

As for `O=S(=O)(c1ccccc1)c1ccc(Nc2cc(Cl)nc3ncnn23)cc1` [Example 88], the half-maximal inhibitory concentration (IC50) was 5.98 µM in assay [1] (Table 2), 11.9 µM on Chk1 (Table 2) and more than 200 µM at PDK1 enzyme (Table 2).
